Data taken from patent publication US20090215822A1, “Substituted Oxadiazole Derivatives as Positive Allosteric Modulators of Metabotropic Glutamate Receptors” (NIKEM RESEARCH SRL, priority 2005, published 2009).
One block for each compound: values may come before it.

What was measured:
rat mGluR5 receptor = biological target: T1, rat mGluR5 receptor (Rattus norvegicus, UniProt P31424); experiment: mGluR5 assay on HEK-expressing rat mGluR5 (fluorescent cell based Ca2+ mobilization assay); conditions: for activation of rat mGluR5 receptors without co-addition of glutamate: HEK-rat mGluR5 cell line, no added glutamate or agonist; for EC50: HEK-293 cells stably expressing rat mGluR5, no co-addition of glutamate, mean of at least three independent experiments in duplicate, read-out: Ca++ Flux (mean EC50)
T1 construct: expressed in transfected cells
T1 sequence (P31424 21-1171 isoform P31424-2 limits assumed): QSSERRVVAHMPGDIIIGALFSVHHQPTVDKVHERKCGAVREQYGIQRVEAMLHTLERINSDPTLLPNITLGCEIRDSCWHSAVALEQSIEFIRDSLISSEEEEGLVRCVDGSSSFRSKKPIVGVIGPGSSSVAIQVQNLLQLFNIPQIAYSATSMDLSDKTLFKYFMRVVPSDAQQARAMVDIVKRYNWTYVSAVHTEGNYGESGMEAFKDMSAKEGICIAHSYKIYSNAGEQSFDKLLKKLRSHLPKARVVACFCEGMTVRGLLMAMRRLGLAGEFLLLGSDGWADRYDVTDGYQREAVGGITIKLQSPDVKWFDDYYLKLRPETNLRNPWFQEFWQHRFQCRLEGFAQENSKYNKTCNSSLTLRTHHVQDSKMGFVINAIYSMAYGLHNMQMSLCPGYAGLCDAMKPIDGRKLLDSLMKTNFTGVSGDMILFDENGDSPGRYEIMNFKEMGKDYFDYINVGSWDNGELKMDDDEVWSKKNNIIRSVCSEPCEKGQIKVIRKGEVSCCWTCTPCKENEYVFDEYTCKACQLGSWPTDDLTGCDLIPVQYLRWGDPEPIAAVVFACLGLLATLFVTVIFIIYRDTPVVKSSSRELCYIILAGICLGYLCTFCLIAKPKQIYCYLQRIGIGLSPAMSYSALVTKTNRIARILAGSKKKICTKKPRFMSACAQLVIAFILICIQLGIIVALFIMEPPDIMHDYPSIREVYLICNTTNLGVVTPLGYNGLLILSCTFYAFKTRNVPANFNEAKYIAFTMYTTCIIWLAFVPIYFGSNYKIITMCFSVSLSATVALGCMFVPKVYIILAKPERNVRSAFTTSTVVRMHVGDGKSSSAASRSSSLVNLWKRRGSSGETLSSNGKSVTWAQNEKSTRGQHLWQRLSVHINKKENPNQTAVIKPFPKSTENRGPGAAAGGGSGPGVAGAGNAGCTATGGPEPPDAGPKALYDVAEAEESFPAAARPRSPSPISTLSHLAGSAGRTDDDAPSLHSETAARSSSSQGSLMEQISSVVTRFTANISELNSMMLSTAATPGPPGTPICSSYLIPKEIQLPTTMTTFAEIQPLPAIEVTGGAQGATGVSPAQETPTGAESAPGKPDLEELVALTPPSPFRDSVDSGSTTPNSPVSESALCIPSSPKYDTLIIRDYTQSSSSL
Description: Positive functional expression of HEK-293 cells stably expressing rat mGluR5 receptor was determined by measuring intracellular Ca^2+ changes using a Fluorometric Imaging Plate Reader (FLIPR, Molecular Devices, Sunnyvale, Calif.) in response to glutamate or selective known mGluR5 agonists and antagonists. Rat mGluR5 RT-PCR products in HEK-293 cells were sequenced and found 100% identical to rat mGluR5 Genbank reference sequence (NM_017012). HEK-293 cells expressing rmGluR5 were maintained in media containing DMEM, dialyzed Fetal Bovine Serum (10%), Glutamax™ (2 mM), Penicillin (100 units/ml), Streptomycin (100 μg/ml), Geneticin (100 μg/ml) and Hygromycin-B (40 μg/ml) at 37° C./5% CO2.
After one day of incubation, cells were washed with assay buffer containing: 142 mM NaCl, 6 mM KCl, 1 mM Mg2SO4, 1 mM CaCl2, 20 mM HEPES, 1 g/L glucose, 0.125 mM sulfinpyrazone, pH 7.4. After 60 min of loading with 4 uM Fluo-4 (TefLabs, Austin, Tex.), the cells were washed three times with 50 μl of PBS Buffer and resuspended in […] of assay Buffer. The plates were then transferred to a Fluorometric Imaging Plate Reader (FLIPR, Molecular Devices, Sunnyvale, Calif.) for the assessment of intracellular calcium flux. After monitoring the baseline fluorescence for 10 seconds, increasing concentrations of representative compound (from 0.01 to 60 μM) of the present invention diluted in Assay Buffer (15 μl of 4× dilutions) was added to the cell. The final DMSO concentration in the assay was 0.3%. In each experiment, fluorescence was then monitored as a function of time for 3 minutes and the data analyzed using Microsoft Excel and GraphPad Prism. Each data point was also measured two times.
Under these experimental conditions, this HEK-rat mGluR5 cell line is able to directly detect positive allosteric modulators without the need of co-addition of glutamate or mGluR5 agonist.
The concentration-response curves of representative compounds of the present invention were generated using the Prism GraphPad software (Graph Pad Inc, San Diego, USA). The curves were fitted to a four-parameter logistic equation:
(Y=Bottom+(Top-Bottom)/(1+10̂((Log EC50−X)*Hill Slope)
allowing determination of EC50 values.
The Table 1 below represents the mean EC50 obtained from at least three independent experiments of selected molecules performed in duplicate.

mGluR5 = biological target: T2, mGluR5 (Rattus norvegicus, UniProt P31424); conditions: Liu et al (2006), Zhang et al (2005); cited from earlier work
T2 construct: positive allosteric modulators of mGluR5 receptors in native preparations; endogenous in cells; host or cells: primary cortical astrocytes from Sprague-Dawley rat embryos (E16-19)
T2 sequence (P31424 21-1203): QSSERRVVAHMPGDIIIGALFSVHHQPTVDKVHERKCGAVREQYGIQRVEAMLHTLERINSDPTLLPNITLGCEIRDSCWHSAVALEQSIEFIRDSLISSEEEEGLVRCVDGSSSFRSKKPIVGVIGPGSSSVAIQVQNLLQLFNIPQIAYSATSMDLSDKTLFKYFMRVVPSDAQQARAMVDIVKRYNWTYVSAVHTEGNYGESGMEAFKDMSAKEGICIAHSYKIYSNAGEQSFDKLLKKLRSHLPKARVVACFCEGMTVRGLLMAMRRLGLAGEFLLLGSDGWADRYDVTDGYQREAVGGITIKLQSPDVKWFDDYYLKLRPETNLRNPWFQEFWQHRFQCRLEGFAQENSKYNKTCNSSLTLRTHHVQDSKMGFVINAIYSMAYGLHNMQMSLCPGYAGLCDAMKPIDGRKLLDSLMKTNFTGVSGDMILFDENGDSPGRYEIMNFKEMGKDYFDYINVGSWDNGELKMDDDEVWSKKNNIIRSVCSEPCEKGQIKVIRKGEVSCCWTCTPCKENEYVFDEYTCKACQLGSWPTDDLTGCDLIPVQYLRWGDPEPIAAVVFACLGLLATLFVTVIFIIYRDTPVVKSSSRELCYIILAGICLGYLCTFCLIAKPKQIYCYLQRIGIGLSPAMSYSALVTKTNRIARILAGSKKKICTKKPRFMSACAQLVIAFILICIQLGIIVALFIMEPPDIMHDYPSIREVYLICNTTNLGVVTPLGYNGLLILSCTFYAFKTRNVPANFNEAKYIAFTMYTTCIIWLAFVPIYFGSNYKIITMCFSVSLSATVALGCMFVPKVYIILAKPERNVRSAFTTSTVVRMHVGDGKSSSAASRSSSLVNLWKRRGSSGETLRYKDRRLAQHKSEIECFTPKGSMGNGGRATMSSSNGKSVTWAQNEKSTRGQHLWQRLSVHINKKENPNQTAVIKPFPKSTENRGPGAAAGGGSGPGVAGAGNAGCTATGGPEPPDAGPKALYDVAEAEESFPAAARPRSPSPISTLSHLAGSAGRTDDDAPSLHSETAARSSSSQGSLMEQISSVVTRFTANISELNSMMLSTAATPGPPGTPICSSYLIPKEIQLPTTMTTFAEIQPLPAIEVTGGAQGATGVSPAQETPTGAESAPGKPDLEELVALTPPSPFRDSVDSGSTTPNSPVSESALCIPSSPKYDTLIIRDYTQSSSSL

- EC50 (rat mGluR5 receptor): 1000 to 10000 nM
- melting point: 93 to 95 °C
SMILES: O=C(c1ccc(F)cn1)N1CCC[C@H](c2noc(-c3ccc(F)cc3)n2)C1 [Example 42, {(S)-3-[5-(4-Fluoro-phenyl)-[1,2,4]oxadiazol-3-yl]-piperidin-1-yl}-(5-fluoro-pyridin-2-yl)-methanone]

- EC50 (rat mGluR5 receptor): < 1000 nM
- melting point: 109 to 111 °C
SMILES: O=C(c1ccc(F)nc1)N1CCCC(c2noc(-c3ccccc3)n2)C1 (centres unmarked) [Example 29, (6-Fluoro-pyridin-3-yl)-[3-(5-phenyl-[1,2,4]oxadiazol-3-yl)-piperidin-1-yl]-methanone]

- EC50 (rat mGluR5 receptor): < 1000 nM
- melting point: 103 to 104 °C
SMILES: O=C(c1ccc(F)nc1)N1CCC[C@H](c2noc(-c3ccc(F)cc3)n2)C1 [Example 36, {(S)-3-[5-(4-Fluoro-phenyl)-[1,2,4]oxadiazol-3-yl]-piperidin-1-yl}-(6-fluoro-pyridin-3-yl)-methanone]

- EC50 (rat mGluR5 receptor): < 1000 nM
- melting point: 108 to 110 °C
SMILES: O=C(c1ccc(F)cc1)N1CCC[C@H](c2noc(-c3ccc(F)cn3)n2)C1 [Example 44, (S)-(4-fluorophenyl)-{3-[5-(5-fluoropyridin-2-yl)-[1,2,4]oxadiazol-3-yl]-piperidin-1-yl}-methanone]

- EC50 (rat mGluR5 receptor): 1000 to 10000 nM
- melting point: 110 °C
SMILES: Cc1cc(F)ccc1C(=O)N1CCCC(c2noc(-c3ccc(F)cc3F)n2)C1 (centres unmarked) [Example 31, {3-[5-(2,4-Difluoro-phenyl)-[1,2,4]oxadiazol-3-yl]-piperidin-1-yl}-(4-fluoro-2-methyl-phenyl)-methanone]

- EC50 (rat mGluR5 receptor): < 1000 nM
- melting point: 117 to 119 °C
SMILES: O=C(c1ccnc(F)c1)N1CCC[C@H](c2noc(-c3ccc(F)cc3)n2)C1 [Example 40, {(S)-3-[5-(4-Fluoro-phenyl)-[1,2,4]oxadiazol-3-yl]-piperidin-1-yl}-(2-fluoro-pyridin-4-yl)-methanone]

- EC50 (rat mGluR5 receptor): < 1000 nM
- melting point: 120 °C
SMILES: O=C(c1ccc(F)c(F)c1)N1CCC[C@H](c2noc(-c3ccc(F)cc3)n2)C1 [Example 37, (3,4-Difluoro-phenyl)-{(S)-3-[5-(4-fluoro-phenyl)-[1,2,4]oxadiazol-3-yl]-piperidin-1-yl}-methanone]

- EC50 (rat mGluR5 receptor): < 1000 nM
- melting point: 65 °C
SMILES: Cc1oncc1C(=O)N1CCC[C@H](c2noc(-c3ccc(F)cc3)n2)C1 [Example 39, {(S)-3-[5-(4-Fluoro-phenyl)-[1,2,4]oxadiazol-3-yl]-piperidin-1-yl}-(5-methyl-isoxazol-4-yl)-methanone]

The next lines start with the compound.

SMILES: N#Cc1cccc(C(=O)Nc2cc(-c3ccccc3)nn2-c2ccccc2)c1 [CDPPB, reference compound]
- activation of rat mGluR5 receptors without co-addition of glutamate (rat mGluR5 receptor): activating
- activity in rat cortical astrocytes culture in the absence of added glutamate (mGluR5): inactive

SMILES: O=C(c1ccc(F)cc1)N1CCCC(c2noc(-c3ccncc3)n2)C1 (centres unmarked) [Example 14, (4-Fluoro-phenyl)-[3-(5-pyridin-4-yl-[1,2,4]oxadiazol-3-yl)-piperidin-1-yl]-methanone]
- EC50 (rat mGluR5 receptor): 1000 to 10000 nM
- melting point: 149 to 151 °C

SMILES: O=C(c1ccc(F)c(F)c1)N1CCCC(c2noc(-c3ccc(F)cc3F)n2)C1 (centres unmarked) [Example 17, (3,4-Difluoro-phenyl)-{3-[5-(2,4-difluoro-phenyl)-[1,2,4]oxadiazol-3-yl]-piperidin-1-yl}-methanone]
- EC50 (rat mGluR5 receptor): < 1000 nM
- melting point: 91 °C

SMILES: O=C(c1ccc(F)cc1F)N1CCCC(c2noc(-c3ccncc3)n2)C1 (centres unmarked) [Example 16, (2,4-Difluoro-phenyl)-[3-(5-pyridin-4-yl-[1,2,4]oxadiazol-3-yl)-piperidin-1-yl]-methanone]
- EC50 (rat mGluR5 receptor): 1000 to 10000 nM
- melting point: 137 to 139 °C

SMILES: Cc1cc(F)ccc1C(=O)N1CCCC(c2noc(-c3ccc(F)cc3)n2)C1 (centres unmarked) [Example 27, (4-Fluoro-2-methyl-phenyl)-{3-[5-(4-fluoro-phenyl)-[1,2,4]oxadiazol-3-yl]-piperidin-1-yl}-methanone]
- EC50 (rat mGluR5 receptor): 1000 to 10000 nM
- melting point: 129 to 131 °C

SMILES: O=C(c1ccc(F)cc1)N1CCCC(c2noc(-c3ccccn3)n2)C1 (centres unmarked) [Example 11, (4-Fluoro-phenyl)-[3-(5-pyridin-2-yl-[1,2,4]oxadiazol-3-yl)-piperidin-1-yl]-methanone]
- EC50 (rat mGluR5 receptor): 1000 to 10000 nM
- melting point: 126 to 129 °C

SMILES: Cc1oncc1C(=O)N1CCCC(c2noc(-c3ccc(F)cc3)n2)C1 (centres unmarked) [Example 28, {3-[5-(4-Fluoro-phenyl)-[1,2,4]oxadiazol-3-yl]-piperidin-1-yl}-(5-methyl-isoxazol-4-yl)-methanone]
- EC50 (rat mGluR5 receptor): < 1000 nM
- melting point: 105 to 107 °C

SMILES: O=C(c1ccc(F)cc1)N1CCC[C@@H](c2noc(-c3ccc(F)cc3)n2)C1 [Example 2, (4-Fluoro-phenyl)-{(R)-3-[5-(4-fluoro-phenyl)-[1,2,4]oxadiazol-3-yl]-piperidin-1-yl}-methanone]
- EC50 (rat mGluR5 receptor): 1000 to 10000 nM
- melting point: 120 to 123 °C

SMILES: O=C(c1ccc(F)c(F)c1)N1CCCC(c2noc(-c3ccc(F)cc3)n2)C1 (centres unmarked) [Example 10, (3,4-Difluoro-phenyl)-{3-[5-(4-fluoro-phenyl)-[1,2,4]oxadiazol-3-yl]-piperidin-1-yl}-methanone]
- EC50 (rat mGluR5 receptor): < 1000 nM
- melting point: 149 to 152 °C

SMILES: Fc1cccc(/C=N/N=C/c2cccc(F)c2)c1 [DFB, reference compound]
- activation of rat mGluR5 receptors without co-addition of glutamate (rat mGluR5 receptor): activating
- activity in rat cortical astrocytes culture in the absence of added glutamate (mGluR5): inactive

SMILES: O=C(c1ccc(F)cc1)N1CCCC(c2noc(-c3cscn3)n2)C1 (centres unmarked) [Example 8, (4-Fluoro-phenyl)-[3-(5-thiazol-4-yl-[1,2,4]oxadiazol-3-yl)-piperidin-1-yl]-methanone]
- EC50 (rat mGluR5 receptor): 1000 to 10000 nM
- melting point: 128 °C

SMILES: O=C(Nc1ccc(Cl)cc1CN1C(=O)c2ccccc2C1=O)c1ccccc1O [CPPHA, reference compound]
- activation of rat mGluR5 receptors without co-addition of glutamate (rat mGluR5 receptor): activating
- activity in rat cortical astrocytes culture in the absence of added glutamate (mGluR5): inactive

SMILES: O=C(c1ccc(F)cc1F)N1CCCC(c2noc(-c3ccc(F)cc3)n2)C1 (centres unmarked) [Example 18, (2,4-Difluoro-phenyl)-{3-[5-(4-fluoro-phenyl)-[1,2,4]oxadiazol-3-yl]-piperidin-1-yl}-methanone]
- EC50 (rat mGluR5 receptor): < 1000 nM
- melting point: 137 to 139 °C

SMILES: O=C(c1ccc(F)nc1)N1CCCC(c2noc(-c3ccccn3)n2)C1 (centres unmarked) [Example 12, (6-Fluoro-pyridin-3-yl)-[3-(5-pyridin-2-yl-[1,2,4]oxadiazol-3-yl)-piperidin-1-yl]-methanone]
- EC50 (rat mGluR5 receptor): 1000 to 10000 nM
- melting point: 124 to 126 °C

SMILES: O=C(c1ccc(F)nc1)N1CCCC(c2noc(-c3ccc(F)cc3F)n2)C1 (centres unmarked) [Example 25, {3-[5-(2,4-Difluoro-phenyl)-[1,2,4]oxadiazol-3-yl]-piperidin-1-yl}-(6-fluoro-pyridin-3-yl)-methanone]
- EC50 (rat mGluR5 receptor): 1000 to 10000 nM
- melting point: 87 °C

SMILES: O=C(c1ccc(F)nc1)N1CCCC(c2noc(-c3ccncc3)n2)C1 (centres unmarked) [Example 21, (6-Fluoro-pyridin-3-yl)-[3-(5-pyridin-4-yl-[1,2,4]oxadiazol-3-yl)-piperidin-1-yl]-methanone]
- EC50 (rat mGluR5 receptor): 1000 to 10000 nM
- melting point: 132 to 134 °C

SMILES: O=C(c1ccc(F)cc1)N1CCCC(c2noc(-c3ccc(F)cc3F)n2)C1 (centres unmarked) [Example 13, {3-[5-(2,4-Difluoro-phenyl)-[1,2,4]oxadiazol-3-yl]-piperidin-1-yl}-(4-fluoro-phenyl)-methanone]
- EC50 (rat mGluR5 receptor): < 1000 nM
- melting point: 88 °C
